Measurements reported in patent publication US11382956B2, “Amylin analogues” (Zealand Pharma A/S, priority 2016, dated 2022).
Numbered stars: 1 amine (or outer) side, 2 acyl side, 3 side chain; on linkers, the order of the positions; unused ones are H or OH. Bridge positions count the residues as written; N and C are the ends. Square brackets hold non-standard residues; d marks the D form. Peptide text beside a SMILES is read from it. * marks the point of attachment. C20 diacid = O=C(O)CCCCCCCCCCCCCCCCCCC(=O)*; γGlu = O=C(O)[C@H](CCC(=O)[*:2])N[*:1]; Hyp = O=C(O)[C@@H]1C[C@@H](O)CN1; NMeI = CC[C@H](C)[C@H](NC)C(=O)O; Aad = N[C@@H](CCCC(=O)O)C(=O)O; Orn = NCCC[C@H](N)C(=O)O; Sar = CNCC(=O)O

Experiments:
[1] = target: T1, recombinant human amylin 3 receptor (hAMYR3) (Homo sapiens, UniProt O60896+P30988); assay: hAMYR3 cAMP assay (AlphaScreen) in 1321N1 cells; type: cell-based; settings: cAMP formation, 45 min stimulation
T1 construct: host or cells: human astrocytoma cell line 1321N1
T1 sequence (P30988 25-474): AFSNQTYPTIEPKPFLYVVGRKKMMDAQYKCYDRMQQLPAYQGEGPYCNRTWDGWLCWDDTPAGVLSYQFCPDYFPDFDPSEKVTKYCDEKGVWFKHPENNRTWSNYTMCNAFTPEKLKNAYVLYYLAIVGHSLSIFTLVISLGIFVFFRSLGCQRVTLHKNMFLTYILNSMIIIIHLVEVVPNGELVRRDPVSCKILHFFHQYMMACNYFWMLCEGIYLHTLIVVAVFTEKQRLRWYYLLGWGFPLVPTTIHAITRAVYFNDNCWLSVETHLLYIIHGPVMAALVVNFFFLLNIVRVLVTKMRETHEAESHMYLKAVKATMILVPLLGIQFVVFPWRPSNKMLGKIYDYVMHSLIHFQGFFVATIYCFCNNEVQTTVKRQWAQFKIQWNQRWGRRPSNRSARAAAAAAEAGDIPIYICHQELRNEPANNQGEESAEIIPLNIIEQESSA
T1 sequence (O60896 24-148 partner): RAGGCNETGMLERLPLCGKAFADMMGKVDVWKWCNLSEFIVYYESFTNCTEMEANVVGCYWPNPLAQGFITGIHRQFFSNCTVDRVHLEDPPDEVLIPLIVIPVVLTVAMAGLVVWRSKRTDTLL
Method in brief: (§1)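 1321N1 astrocytoma cells expressing recombinant human calcitonin receptor alone or with RAMP3 (AMY3) stimulated 45 min at room temperature with peptide in IBMX-containing buffer. cAMP quantified by AlphaScreen after 1 h bead incubation; EC50 fitted from at least 7 concentrations.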

[2] = Assessment of physical stability: fibril formation by Thioflavin T fluorescence; type: physicochemical; parameters: key: FND = fibrillation not detected; FD = fibrillation detected; settings: 1 mg/mL peptide; for Fibrillation (in buffer) pH4 acetate: 50 mM acetate buffer pH 4.0, 96 hours at 40° C.; for Fibrillation (in buffer) pH7 histidine: 50 mM histidine buffer pH 7.0, 96 hours at 40° C.; for Fibrillation (in buffer) pH7 phosphate: 50 mM phosphate buffer pH 7.0, 96 hours at 40° C.
Experimental: Solutions containing (i) 1 mg/mL of test peptide, 40 μM ThT and 50 mM phosphate (Ph) buffer (pH 7.0), (ii) 1 mg/mL of test peptide, 40 μM ThT and 50 mM histidine (His) buffer (pH 7.0), and (iii) 1 mg/mL of test peptide, 40 μM ThT and 50 mM acetate (Ac) buffer (pH 4.0), were loaded in a 96-well black fluorescence plate (clear bottom) in triplicate. Data were collected at fixed intervals of 10 min, each preceded by 300 s of automixing (agitation), over a period of 96 hours at 40° C. Physical stability is determined by measuring the fluorescence intensity over time. A significant increase in intensity is rated as fibrillation detected (FD).

[3] = Assessment of chemical stability in 40 mM buffers at 40° C. (RP-HPLC); type: physicochemical; settings: 1 mg/mL; for % degradation after 72 h at 40° C. pH4 acetate: acetate buffer pH 4, 72 h; for % degradation after 72 h at 40° C. pH6 phosphate: phosphate buffer pH 6, 72 h; for % degradation after 72 h at 40° C. pH7 phosphate: phosphate buffer pH 7, 72 h
Method in brief: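 Peptides at 1 mg/mL in 40 mM acetate pH 4 or phosphate pH 6 and 7 were held at 40° C for 3 and 14 days. Main-peak area-% by C8 RP-HPLC, UV 220 nm; % degradation = change in main-peak area-% versus t=0.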

[4] = target: T2, recombinant human calcitonin receptor (hCT-R) (Homo sapiens, UniProt P30988); assay: hCT-R cAMP assay (AlphaScreen) in 1321N1 cells; type: cell-based; settings: cAMP formation, 45 min stimulation
T2 construct: host or cells: human astrocytoma cell line 1321N1
T2 sequence (P30988 25-474): T1 sequence (P30988 25-474)
Method in brief: as §1

EC50 [1] | Fibrillation (in buffer) pH4 acetate [2] | Fibrillation (in buffer) pH7 histidine [2] | Fibrillation (in buffer) pH7 phosphate [2] | % degradation after 72 h at 40° C. pH4 acetate [3] | % degradation after 72 h at 40° C. pH6 phosphate [3] | % degradation after 72 h at 40° C. pH7 phosphate [3] | EC50 [4] | Structure (SMILES)
0.325 nM | FND | FND | FND | <1% | <1% | 1.7% | 0.521 nM | CC[C@H](C)[C@@H](C(=O)N[C@@H](CC(C)C)C(=O)N[C@@H](CO)C(=O)N[C@@H](CO)C(=O)N[C@H](C(=O)N[C@@H](CCC(=O)O)C(=O)N[C@H](C(=O)NCC(=O)N[C@@H](CO)C(=O)N[C@@H](CC(N)=O)C(=O)N[C@H](C(=O)N1C[C@H](O)C[C@H]1C(N)=O)[C@@H](C)O)C(C)C)[C@@H](C)O)N(C)C(=O)[C@H](C)NC(=O)CN(C)C(=O)[C@H](Cc1ccccc1)NC(=O)[C@@H](NC(=O)CNC(=O)[C@H](CCCNC(=N)N)NC(=O)[C@H](CCC(N)=O)NC(=O)[C@H](CC(C)C)NC(=O)[C@H](Cc1ccccc1)NC(=O)[C@H](CCCC(=O)O)NC(=O)[C@H](C)NC(=O)[C@H](CC(C)C)NC(=O)[C@H](CCCNC(=N)N)NC(=O)[C@H](CCC(=O)O)NC(=O)[C@@H](NC(=O)[C@H](C)NC(=O)[C@@H]1CCCNC(=O)C[C@H](NC(=O)[C@H](CCCNC(=N)N)NC(=O)CC[C@H](NC(=O)CCCCCCCCCCCCCCCCCCC(=O)O)C(=O)O)C(=O)NCC(=O)N[C@@H]([C@@H](C)O)C(=O)N[C@@H](C)C(=O)N[C@@H]([C@@H](C)O)C(=O)N1)[C@@H](C)O)[C@@H](C)O [Compound 27, [19CD]-isoGlu-RD()GTAT-Orn()-ATERLA-Aad-FLQRGTF-Gly(Me)-A-Ile(Me)-LSSTEVGSNT-Hyp-NH2] ({C20 diacid-γGlu}-RDGTAT[Orn]ATERLA[Aad]FLQRGTF[Sar]A[NMeI]LSSTEVGSNT[Hyp]-NH2; lactam 2-7)
0.024 nM | FND | FND | FND | <1% | <1% | <1% | 0.068 nM | CC[C@H](C)[C@@H](C(=O)N[C@@H](CC(C)C)C(=O)N[C@@H](CO)C(=O)N[C@@H](CO)C(=O)N[C@H](C(=O)N[C@@H](CCC(=O)O)C(=O)N[C@H](C(=O)NCC(=O)N[C@@H](CO)C(=O)N[C@@H](CC(N)=O)C(=O)N[C@H](C(=O)N1C[C@H](O)C[C@H]1C(N)=O)[C@@H](C)O)C(C)C)[C@@H](C)O)N(C)C(=O)[C@H](C)NC(=O)CN(C)C(=O)[C@H](Cc1ccccc1)NC(=O)[C@H](CO)NC(=O)[C@H](CO)NC(=O)[C@H](CCCNC(=N)N)NC(=O)[C@H](CCC(N)=O)NC(=O)[C@H](CC(C)C)NC(=O)[C@H](Cc1ccccc1)NC(=O)[C@H](Cc1c[nH]cn1)NC(=O)[C@H](C)NC(=O)[C@H](CC(C)C)NC(=O)[C@H](CCCNC(=N)N)NC(=O)[C@H](CCC(=O)O)NC(=O)[C@@H](NC(=O)[C@H](C)NC(=O)[C@@H]1CCCCNC(=O)C[C@H](NC(=O)[C@H](CCC(=O)O)NC(=O)CC[C@H](NC(=O)CCCCCCCCCCCCCCCCCCC(=O)O)C(=O)O)C(=O)NCC(=O)N[C@@H]([C@@H](C)O)C(=O)N[C@@H](C)C(=O)N[C@@H]([C@@H](C)O)C(=O)N1)[C@@H](C)O [Compound 11, [19CD]-isoGlu-ED()GTATK()ATERLAHFLQRSSF-Gly(Me)-A-Ile(Me)-LSSTEVGSNT-Hyp-NH2] ({C20 diacid-γGlu}-EDGTATKATERLAHFLQRSSF[Sar]A[NMeI]LSSTEVGSNT[Hyp]-NH2; lactam 2-7)
